# Literature values, collected in patent US20060172021A1, “Herbal compositions for the prevention or treatment of symptoms of stress and infection” (priority 2005, published 2006).
# Key:
# female mice = settings: mouse, in vivo
# [1] = test system: human progesterone production
Molecule,Inhibition of prostaglandin synthesis (prostaglandin synthesis),other results
C=C1CC[C@@H]2[C@](C)(CO)[C@H](O)CC[C@@]2(C)[C@@H]1/C=C/C1=CCOC1=O [dehydroandrographolide],–,Dose required to affect pregnancy (female mice): 250 mg/kg. of body weight. This amount of pure
CCCCCC(=O)/C=C(O)/C=C\c1ccc(O)c(OC)c1 [dehydrogingerdione],potent inhibitors,–
CCCCCC(=O)CC(=O)CCc1ccc(O)c(OC)c1 [gingerdione],potent inhibitors,–
CCCCC[C@H](O)CC(=O)CCc1ccc(O)c(OC)c1 [gingerol],potent inhibitors,–
andrographolide sodium succinate,–,Detrimental effects on other normal human tissue [1]: intended for. There were no detrimental effects; Inhibition of human progesterone production ([1]; cultured human placental tissue): (derived from AP) was effective in inhibiting
